How the values were obtained:
Estrogen receptor = molecular target: T1, Estrogen receptor (Homo sapiens, UniProt P03372)
T1 sequence (P03372 whole entry): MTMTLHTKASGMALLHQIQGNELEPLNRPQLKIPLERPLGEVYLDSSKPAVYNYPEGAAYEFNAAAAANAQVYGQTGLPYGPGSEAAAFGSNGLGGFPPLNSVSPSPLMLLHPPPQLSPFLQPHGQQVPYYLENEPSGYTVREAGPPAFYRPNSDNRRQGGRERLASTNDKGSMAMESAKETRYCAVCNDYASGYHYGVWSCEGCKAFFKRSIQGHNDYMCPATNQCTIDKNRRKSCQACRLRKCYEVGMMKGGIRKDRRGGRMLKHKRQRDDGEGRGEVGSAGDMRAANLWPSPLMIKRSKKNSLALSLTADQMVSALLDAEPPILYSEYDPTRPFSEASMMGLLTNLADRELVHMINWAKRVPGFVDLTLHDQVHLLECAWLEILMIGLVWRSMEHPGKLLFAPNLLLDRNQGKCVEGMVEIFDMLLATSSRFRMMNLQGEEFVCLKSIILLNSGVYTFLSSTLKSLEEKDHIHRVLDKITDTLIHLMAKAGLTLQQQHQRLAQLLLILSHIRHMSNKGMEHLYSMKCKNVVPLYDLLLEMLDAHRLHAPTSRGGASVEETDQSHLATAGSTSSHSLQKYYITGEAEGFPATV

[1] = molecular target: Beta-2 adrenergic receptor (Homo sapiens, UniProt P07550)
Beta-2 adrenergic receptor, sequence (P07550 whole entry): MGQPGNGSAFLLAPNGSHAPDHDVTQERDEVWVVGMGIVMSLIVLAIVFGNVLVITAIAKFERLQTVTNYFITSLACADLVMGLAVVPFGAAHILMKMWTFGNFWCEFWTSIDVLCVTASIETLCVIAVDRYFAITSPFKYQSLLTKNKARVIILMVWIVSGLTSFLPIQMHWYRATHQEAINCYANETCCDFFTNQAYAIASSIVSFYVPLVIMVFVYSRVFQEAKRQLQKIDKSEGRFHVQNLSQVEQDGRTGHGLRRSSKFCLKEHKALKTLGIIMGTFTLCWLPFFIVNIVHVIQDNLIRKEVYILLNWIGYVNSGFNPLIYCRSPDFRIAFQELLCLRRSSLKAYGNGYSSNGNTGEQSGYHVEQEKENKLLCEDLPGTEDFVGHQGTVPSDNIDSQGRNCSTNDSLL

[2] = molecular target: 5-hydroxytryptamine receptor 2A (Homo sapiens, UniProt P28223); format: functional, cell-based
5-hydroxytryptamine receptor 2A, sequence (P28223 whole entry): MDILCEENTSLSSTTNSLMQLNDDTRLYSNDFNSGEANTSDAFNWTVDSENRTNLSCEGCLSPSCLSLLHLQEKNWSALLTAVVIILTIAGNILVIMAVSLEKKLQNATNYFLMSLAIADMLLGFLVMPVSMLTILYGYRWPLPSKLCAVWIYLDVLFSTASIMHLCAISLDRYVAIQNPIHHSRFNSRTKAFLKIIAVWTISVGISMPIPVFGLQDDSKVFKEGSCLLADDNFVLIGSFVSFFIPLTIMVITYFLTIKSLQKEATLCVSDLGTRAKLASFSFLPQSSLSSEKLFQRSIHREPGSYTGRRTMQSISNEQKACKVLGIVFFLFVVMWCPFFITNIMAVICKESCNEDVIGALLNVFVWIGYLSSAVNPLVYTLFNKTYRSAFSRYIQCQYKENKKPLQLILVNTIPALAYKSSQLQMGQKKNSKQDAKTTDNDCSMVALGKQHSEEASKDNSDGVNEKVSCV

Progesterone receptor = molecular target: T2, Progesterone receptor (Homo sapiens, UniProt P06401); format: functional
T2 sequence (P06401 whole entry): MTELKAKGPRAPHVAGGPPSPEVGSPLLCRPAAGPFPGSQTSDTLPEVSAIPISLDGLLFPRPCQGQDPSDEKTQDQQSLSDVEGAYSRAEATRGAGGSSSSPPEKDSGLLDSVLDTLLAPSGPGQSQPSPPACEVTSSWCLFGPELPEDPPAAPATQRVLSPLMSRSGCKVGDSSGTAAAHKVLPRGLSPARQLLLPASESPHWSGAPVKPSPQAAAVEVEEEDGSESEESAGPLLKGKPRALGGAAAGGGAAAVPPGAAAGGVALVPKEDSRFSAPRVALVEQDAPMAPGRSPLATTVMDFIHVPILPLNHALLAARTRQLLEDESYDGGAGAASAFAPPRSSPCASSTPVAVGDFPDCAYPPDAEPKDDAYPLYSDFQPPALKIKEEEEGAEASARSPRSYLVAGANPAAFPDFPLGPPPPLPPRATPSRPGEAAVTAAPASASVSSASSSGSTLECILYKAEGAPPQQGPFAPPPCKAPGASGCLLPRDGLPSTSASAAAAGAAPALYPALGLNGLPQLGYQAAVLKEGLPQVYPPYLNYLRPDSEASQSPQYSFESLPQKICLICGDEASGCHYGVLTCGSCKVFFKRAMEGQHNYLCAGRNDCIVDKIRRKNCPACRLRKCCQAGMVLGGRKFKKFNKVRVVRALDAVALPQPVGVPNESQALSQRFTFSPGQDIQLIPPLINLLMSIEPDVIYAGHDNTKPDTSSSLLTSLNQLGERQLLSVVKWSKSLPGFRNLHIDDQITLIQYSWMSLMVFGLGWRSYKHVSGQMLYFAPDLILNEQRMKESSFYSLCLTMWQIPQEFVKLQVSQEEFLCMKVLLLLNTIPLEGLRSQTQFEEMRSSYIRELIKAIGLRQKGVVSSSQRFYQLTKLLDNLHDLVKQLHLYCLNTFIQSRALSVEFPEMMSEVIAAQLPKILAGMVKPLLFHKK

D(3) dopamine receptor = D(3) dopamine receptor (Homo sapiens, UniProt P35462)
D(3) dopamine receptor, sequence (P35462 whole entry): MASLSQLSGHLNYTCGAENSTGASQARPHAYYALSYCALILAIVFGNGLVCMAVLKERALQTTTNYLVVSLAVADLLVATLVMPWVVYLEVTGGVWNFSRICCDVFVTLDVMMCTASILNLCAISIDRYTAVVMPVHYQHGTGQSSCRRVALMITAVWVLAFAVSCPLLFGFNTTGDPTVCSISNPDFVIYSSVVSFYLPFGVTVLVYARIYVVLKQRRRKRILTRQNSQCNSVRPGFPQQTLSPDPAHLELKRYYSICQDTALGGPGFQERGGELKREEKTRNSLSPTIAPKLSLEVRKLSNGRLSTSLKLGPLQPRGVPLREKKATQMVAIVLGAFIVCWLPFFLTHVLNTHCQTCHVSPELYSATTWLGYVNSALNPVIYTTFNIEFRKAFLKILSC

[3] = molecular target: Sodium-dependent noradrenaline transporter (Homo sapiens, UniProt P23975)
Sodium-dependent noradrenaline transporter, sequence (P23975 whole entry): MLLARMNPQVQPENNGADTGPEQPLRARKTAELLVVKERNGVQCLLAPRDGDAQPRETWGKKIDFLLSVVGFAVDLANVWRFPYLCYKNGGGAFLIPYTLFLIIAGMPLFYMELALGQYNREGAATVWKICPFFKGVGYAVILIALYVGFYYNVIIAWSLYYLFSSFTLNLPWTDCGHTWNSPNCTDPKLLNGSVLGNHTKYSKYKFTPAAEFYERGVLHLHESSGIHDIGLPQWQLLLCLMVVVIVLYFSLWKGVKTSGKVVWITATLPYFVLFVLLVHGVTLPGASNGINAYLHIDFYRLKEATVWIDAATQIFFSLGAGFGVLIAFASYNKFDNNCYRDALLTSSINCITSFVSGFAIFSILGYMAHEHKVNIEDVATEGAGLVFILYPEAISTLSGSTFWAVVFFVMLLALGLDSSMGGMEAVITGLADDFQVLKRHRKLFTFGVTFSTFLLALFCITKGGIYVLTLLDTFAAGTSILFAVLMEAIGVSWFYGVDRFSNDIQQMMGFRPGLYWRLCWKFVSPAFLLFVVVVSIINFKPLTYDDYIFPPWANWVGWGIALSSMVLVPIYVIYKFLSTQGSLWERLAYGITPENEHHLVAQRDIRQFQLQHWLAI

[4] = molecular target: Voltage-dependent L-type calcium channel subunit alpha-1C (Rattus norvegicus, UniProt P22002); format: functional
Voltage-dependent L-type calcium channel subunit alpha-1C, sequence (P22002 whole entry): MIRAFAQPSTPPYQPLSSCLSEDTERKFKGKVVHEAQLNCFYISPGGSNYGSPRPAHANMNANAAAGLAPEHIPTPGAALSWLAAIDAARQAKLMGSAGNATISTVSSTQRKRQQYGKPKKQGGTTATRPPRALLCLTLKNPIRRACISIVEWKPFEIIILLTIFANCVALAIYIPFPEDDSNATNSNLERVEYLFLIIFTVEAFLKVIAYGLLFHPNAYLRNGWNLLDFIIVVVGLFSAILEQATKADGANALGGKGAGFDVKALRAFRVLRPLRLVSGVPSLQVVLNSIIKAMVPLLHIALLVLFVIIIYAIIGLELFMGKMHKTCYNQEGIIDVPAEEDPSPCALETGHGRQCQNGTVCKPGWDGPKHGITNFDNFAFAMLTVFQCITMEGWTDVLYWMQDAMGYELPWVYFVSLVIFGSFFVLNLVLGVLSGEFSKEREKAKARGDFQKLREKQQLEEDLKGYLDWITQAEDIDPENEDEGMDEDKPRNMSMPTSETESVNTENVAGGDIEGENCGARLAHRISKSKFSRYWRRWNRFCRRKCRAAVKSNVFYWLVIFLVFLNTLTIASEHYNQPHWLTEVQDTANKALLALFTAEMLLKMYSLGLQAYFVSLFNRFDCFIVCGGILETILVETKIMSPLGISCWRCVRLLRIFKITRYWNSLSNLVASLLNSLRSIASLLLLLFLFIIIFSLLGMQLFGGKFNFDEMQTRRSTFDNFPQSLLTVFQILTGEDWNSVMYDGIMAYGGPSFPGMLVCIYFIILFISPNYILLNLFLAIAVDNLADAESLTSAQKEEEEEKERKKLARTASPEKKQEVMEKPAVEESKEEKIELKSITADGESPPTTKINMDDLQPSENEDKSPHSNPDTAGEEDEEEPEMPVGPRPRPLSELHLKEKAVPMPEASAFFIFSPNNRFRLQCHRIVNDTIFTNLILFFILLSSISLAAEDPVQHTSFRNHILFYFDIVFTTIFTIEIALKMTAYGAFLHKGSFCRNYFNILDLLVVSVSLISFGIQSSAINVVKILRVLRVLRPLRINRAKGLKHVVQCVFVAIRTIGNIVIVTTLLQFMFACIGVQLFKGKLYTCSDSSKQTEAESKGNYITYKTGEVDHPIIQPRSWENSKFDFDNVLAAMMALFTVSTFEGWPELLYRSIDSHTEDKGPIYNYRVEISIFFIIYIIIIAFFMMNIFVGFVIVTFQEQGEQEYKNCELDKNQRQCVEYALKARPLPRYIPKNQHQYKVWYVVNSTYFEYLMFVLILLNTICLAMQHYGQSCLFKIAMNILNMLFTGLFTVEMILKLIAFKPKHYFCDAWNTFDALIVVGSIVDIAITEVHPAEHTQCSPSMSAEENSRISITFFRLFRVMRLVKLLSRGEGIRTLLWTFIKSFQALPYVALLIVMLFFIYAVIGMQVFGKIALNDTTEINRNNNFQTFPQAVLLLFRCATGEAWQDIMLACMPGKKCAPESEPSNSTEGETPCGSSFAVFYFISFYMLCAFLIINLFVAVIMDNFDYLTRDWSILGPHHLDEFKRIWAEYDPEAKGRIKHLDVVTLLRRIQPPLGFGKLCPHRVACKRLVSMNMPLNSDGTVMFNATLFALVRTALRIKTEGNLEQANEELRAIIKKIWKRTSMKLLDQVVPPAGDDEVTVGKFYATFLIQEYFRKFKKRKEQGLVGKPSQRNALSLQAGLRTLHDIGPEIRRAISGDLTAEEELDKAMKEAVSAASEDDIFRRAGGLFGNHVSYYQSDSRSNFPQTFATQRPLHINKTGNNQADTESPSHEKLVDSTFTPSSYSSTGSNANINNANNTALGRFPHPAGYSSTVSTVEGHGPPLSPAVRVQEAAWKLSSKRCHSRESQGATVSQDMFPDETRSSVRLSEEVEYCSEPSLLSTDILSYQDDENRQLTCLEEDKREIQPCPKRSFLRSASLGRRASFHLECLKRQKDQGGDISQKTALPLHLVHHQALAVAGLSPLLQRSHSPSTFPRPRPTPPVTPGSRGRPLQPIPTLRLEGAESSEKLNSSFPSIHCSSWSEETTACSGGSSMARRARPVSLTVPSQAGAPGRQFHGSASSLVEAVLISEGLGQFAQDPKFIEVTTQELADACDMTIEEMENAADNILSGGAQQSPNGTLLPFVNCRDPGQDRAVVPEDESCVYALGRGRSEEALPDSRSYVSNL

[5] = molecular target: T3, 5-hydroxytryptamine receptor 3A (Homo sapiens, UniProt P46098); format: functional
T3 sequence (P46098 whole entry): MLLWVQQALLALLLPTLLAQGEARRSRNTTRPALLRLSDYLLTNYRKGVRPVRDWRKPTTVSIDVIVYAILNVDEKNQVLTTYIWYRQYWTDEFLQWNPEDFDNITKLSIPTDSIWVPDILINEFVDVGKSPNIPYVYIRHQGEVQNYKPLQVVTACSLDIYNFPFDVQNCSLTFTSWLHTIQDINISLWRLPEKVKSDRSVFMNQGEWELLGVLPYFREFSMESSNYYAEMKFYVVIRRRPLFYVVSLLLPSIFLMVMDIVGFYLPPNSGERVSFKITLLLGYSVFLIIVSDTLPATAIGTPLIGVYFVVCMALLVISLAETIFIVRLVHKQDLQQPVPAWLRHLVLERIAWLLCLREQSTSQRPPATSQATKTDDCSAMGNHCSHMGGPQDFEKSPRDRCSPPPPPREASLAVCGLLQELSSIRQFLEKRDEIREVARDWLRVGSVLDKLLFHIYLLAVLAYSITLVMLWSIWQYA

Motilin receptor = Motilin receptor (Homo sapiens, UniProt O43193)
Motilin receptor, sequence (O43193 whole entry): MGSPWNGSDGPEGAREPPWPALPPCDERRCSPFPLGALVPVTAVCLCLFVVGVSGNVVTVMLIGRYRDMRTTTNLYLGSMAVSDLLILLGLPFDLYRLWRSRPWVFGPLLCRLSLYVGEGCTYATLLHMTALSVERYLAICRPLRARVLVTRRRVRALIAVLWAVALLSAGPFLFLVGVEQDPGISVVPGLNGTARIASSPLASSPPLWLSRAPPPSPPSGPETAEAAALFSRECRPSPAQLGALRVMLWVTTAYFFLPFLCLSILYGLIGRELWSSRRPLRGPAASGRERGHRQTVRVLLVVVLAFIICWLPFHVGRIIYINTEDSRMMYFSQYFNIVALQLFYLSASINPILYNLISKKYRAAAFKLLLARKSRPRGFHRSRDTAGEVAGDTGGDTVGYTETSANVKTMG

Melanocortin receptor 3 = Melanocortin receptor 3 (Homo sapiens, UniProt P41968)
Melanocortin receptor 3, sequence (P41968 whole entry): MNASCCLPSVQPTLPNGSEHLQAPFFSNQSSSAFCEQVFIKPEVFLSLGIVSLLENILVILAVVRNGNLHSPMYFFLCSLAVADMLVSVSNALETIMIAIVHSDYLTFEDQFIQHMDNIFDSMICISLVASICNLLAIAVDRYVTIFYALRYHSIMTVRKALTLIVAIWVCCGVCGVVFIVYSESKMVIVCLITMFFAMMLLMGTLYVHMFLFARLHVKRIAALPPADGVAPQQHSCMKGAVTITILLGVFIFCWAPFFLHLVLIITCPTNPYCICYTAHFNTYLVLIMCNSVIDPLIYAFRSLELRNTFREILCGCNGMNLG

[6] = molecular target: Glutamate receptor ionotropic, NMDA 1 (Rattus norvegicus, UniProt P35439)
Further: assay procedure not described here.

Row | SMILES | AC50 (Estrogen receptor) [µM] | AC50 [1] [µM] | AC50 [2] [µM] | AC50 (Progesterone receptor) [µM] | AC50 (D(3) dopamine receptor) [µM] | AC50 [3] [µM] | AC50 [4] [µM] | AC50 [5] [µM] | AC50 (Motilin receptor) [µM] | AC50 (Melanocortin receptor 3) [µM] | AC50 [6] [µM]
1 | CC(=O)OCC(=O)[C@@]12OC3(CCCC3)O[C@@H]1C[C@H]1[C@@H]3CCC4=CC(=O)C=C[C@]4(C)[C@@]3(F)[C@@H](O)C[C@@]12C [AMCINONIDE] | > 30 | > 10 | > 10 | 0.212 | > 30 | > 10 | > 10 | > 30 | > 10 | > 10 | > 10
2 | CN1C(=O)CC(=O)N(c2ccccc2)c2cc(Cl)ccc21 [CLOBAZAM] | > 10 | > 10 | > 10 | > 10 | > 30 | > 10 | > 10 | > 10 | > 10 | > 10 | > 10
3 | C#CC1(OC(N)=O)CCCCC1 [ETHINAMATE] | > 10 | > 10 | > 10 | > 10 | > 30 | > 10 | > 10 | > 30 | > 10 | > 10 | > 10
4 | O=C(CCCCC(=O)Nc1c(I)cc(I)c(C(=O)O)c1I)Nc1c(I)cc(I)c(C(=O)O)c1I [IODIPAMIDE] | > 10 | > 10 | > 10 | > 10 | > 30 | > 10 | > 10 | > 30 | > 10 | > 10 | > 10
5 | CC(C)[N+](C)(CCC(C(N)=O)(c1ccccc1)c1ccccc1)C(C)C [ISOPROPAMIDE] | > 10 | > 10 | > 10 | > 10 | > 30 | > 10 | > 10 | > 30 | > 10 | > 10 | > 10
6 | CN1CC[C@]23CCCC[C@H]2[C@H]1Cc1ccc(O)cc13 [LEVORPHANOL] | > 10 | > 10 | > 10 | > 10 | > 30 | > 30 | > 10 | > 30 | > 10 | > 10 | 0.652
7 | CC1=CC(=O)c2ccccc2C1=O [MENADIONE] | > 30 | > 10 | > 10 | > 30 | > 30 | > 10 | > 10 | > 30 | > 10 | > 10 | > 10
8 | CN1CCCN=C1COC(=O)C(O)(c1ccccc1)C1CCCCC1 (stereo unspecified) [OXYPHENCYCLIMINE] | > 10 | > 10 | > 10 | > 10 | > 30 | > 30 | > 10 | > 30 | > 10 | > 10 | > 10
9 | CN1CCC2=C(C1)C(c1ccccc1)c1ccccc12 (stereo unspecified) [PHENINDAMINE] | > 30 | > 10 | > 10 | > 30 | > 30 | > 30 | > 10 | 12 | > 10 | > 10 | > 10
10 | C#CCN[C@@H]1CCc2ccccc21 [RASAGILINE] | > 30 | > 30 | > 30 | > 30 | > 30 | > 30 | > 30 | > 30 | > 30 | > 30 | > 30
11 | CC(=O)NS(=O)(=O)c1ccc(N)cc1 [SULFACETAMIDE] | > 10 | > 10 | > 10 | > 10 | > 30 | > 10 | > 10 | > 30 | > 10 | > 10 | > 10

Reference: ChEMBL document CHEMBL5291721, “A preclinical secondary pharmacology resource illuminates target-adverse drug reaction associations of marketed drugs” (Nat Commun, 2023)
